Assay results: PubChem BioAssay (NCI)
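Exposure lasted 48 hours, with cells grown in 96-well plates and compounds tested at five concentrations. GI50 = concentration required for 50% inhibition of growth. TGI marks complete inhibition of growth.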

Tests used:
Experiment in all cases: DTP human tumour cell line panel, 48 h
HCC-2998 colon = system: HCC-2998 colon
UO-31 renal = system: UO-31 renal
U251 CNS = system: U251 CNS
CAKI-1 renal = system: CAKI-1 renal
A498 renal = system: A498 renal
BT-549 breast = system: BT-549 breast
SK-MEL-28 melanoma = system: SK-MEL-28 melanoma
COLO 205 colon = system: COLO 205 colon
NCI-H23 lung = system: NCI-H23 lung
SR leukemia = system: SR leukemia

Structure (SMILES)	TGI (HCC-2998 colon) [µM]	TGI (UO-31 renal) [µM]	TGI (U251 CNS) [µM]	TGI (CAKI-1 renal) [µM]	TGI (A498 renal) [µM]	TGI (BT-549 breast) [µM]	TGI (SK-MEL-28 melanoma) [µM]	TGI (COLO 205 colon) [µM]	TGI (NCI-H23 lung) [µM]	TGI (SR leukemia) [µM]	GI50 (HCC-2998 colon) [µM]	GI50 (UO-31 renal) [µM]	GI50 (U251 CNS) [µM]	GI50 (CAKI-1 renal) [µM]	GI50 (A498 renal) [µM]	GI50 (BT-549 breast) [µM]	GI50 (SK-MEL-28 melanoma) [µM]	GI50 (NCI-H23 lung) [µM]
CC(=O)O[C@H]1C[C@@H](OC(C)=O)[C@@](C)(O)[C@@H]2[C@@H](OC(C)=O)[C@@]3(O)[C@H](/C=C(/CCl)[C@H]4O[C@H]4[C@@H](OC(C)=O)[C@@]12C)OC(=O)[C@@H]3C	> 25	> 25	> 25	> 25	> 25	> 25	> 25	> 25	> 25	–	–	–	–	–	–	–	–	–
CON(C)C(=O)C(C)NC(=O)OC(C)(C)C (stereo not drawn)	> 100	> 100	> 100	–	> 100	> 100	> 100	> 100	> 100	> 100	–	–	–	–	–	–	–	–
CCN(CC)C(=S)SSCCO	43.3	32.3	37.5	27.5	> 100	31.9	29.3	–	31.5	–	18.9	15.8	16.7	13.6	85	16	15.8	16.4
FC(F)(F)c1cnc(N/N=C(/c2ccccc2)c2ccccn2)c(Cl)c1	24.8	21.7	30.4	19.6	–	29.8	> 100	20.6	25.1	55.3	–	–	–	–	–	–	–	–
Nc1c(C(=O)c2ccccc2)nnc2ccccc12	54.4	> 100	> 100	> 100	–	72.7	> 100	36	> 100	> 100	–	–	–	–	–	–	–	–
CC(=O)O[C@H]1C[C@H]2[C@@H]([C@H](OC(C)=O)C[C@@H]3CC4(CC[C@@]32C)OOC2(CCCCC2)OO4)[C@@H]2CC[C@H]([C@H](C)CCC(=O)O)[C@@]12C	25	11	17.7	25.3	27.1	17.3	24	14	16.6	8.3	–	–	–	–	–	–	–	–
Cc1cc(OC(=O)Nc2ccc(Cl)cc2)ccc1C(=S)Nc1ccccc1	> 100	> 100	> 100	> 100	> 100	> 100	> 100	> 100	–	> 100	–	–	–	–	–	–	–	–
C=C1C(=O)O[C@@H]2[C@H]1C[C@H](I)[C@@]1(C)CC[C@H](O1)[C@](C)(I)CCCC(C)[C@@H]2O (stereo partly drawn)	25.2	7.74	20	4.19	28.1	20.9	17.6	4.95	20.5	9.41	–	–	–	–	–	–	–	–
CC(C)CCCC(C)[C@H]1CCC2[C@@H]3CCC4Cc5nc6c(nc5C[C@]4(C)C3CC[C@@]21C)CC1CC[C@@H]2C(CC[C@@]3(C)C2CC[C@@H]3O)[C@@]1(C)C6 (stereo partly drawn)	–	> 100	> 100	–	> 100	> 100	> 100	> 100	> 100	> 100	–	–	–	–	–	–	–	–
CCN(CC)Cc1ccc(Nc2c3ccccc3nc3ccccc23)cc1	2.4	5.22	6.68	4.66	9.41	23.6	4.69	5.78	4.52	22.2	–	–	–	–	–	–	–	–
Cn1cnnc1SC(F)(F)c1nc2ccccc2o1	> 100	> 100	> 100	> 100	> 100	> 100	> 100	> 100	> 100	> 100	–	–	–	–	–	–	–	–
O=C(/C=C/c1ccc(Cl)cc1)c1ccc(Cl)s1	47.3	> 100	> 100	–	> 100	80.7	> 100	> 100	> 100	> 100	–	–	–	–	–	–	–	–
CC(C)=NNc1ncnc2nc[nH]c12	32	> 87.9	> 100	> 100	54.2	> 100	> 100	59.5	> 100	> 60.8	–	–	–	–	–	–	–	–
COc1cc(S(=O)(=O)Nc2ccc(-c3csc(/N=C\c4cccs4)n3)cc2)ccc1Cl	70.1	> 100	–	> 100	> 100	> 100	> 100	> 100	> 100	52.2	–	–	–	–	–	–	–	–
COC1(c2ccccc2)NC(=S)NN=C1c1ccccc1 (stereo not drawn)	37.8	> 100	46.6	> 100	> 100	82.8	> 100	49.8	> 100	85.8	–	–	–	–	–	–	–	–
O=C(c1ccccc1)c1ccc2nc3n(c2c1)C(c1c(Cl)cccc1Cl)SC3 (stereo not drawn)	> 50.4	> 67.6	> 100	> 51.7	50.1	> 100	> 100	> 90.2	83.6	8.42	–	–	–	–	–	–	–	–
O=S(=O)(O)c1ccc2c(N=Nc3c(O)ccc4ccccc34)cccc2c1	–	> 100	> 100	> 100	> 100	> 100	> 100	> 100	> 100	> 100	–	–	–	–	–	–	–	–
N=C(N)c1ccc(N=Nc2c(O)ccc3cc(O)ccc23)cc1	> 100	> 100	> 100	> 100	–	> 100	> 100	> 100	–	> 100	–	–	–	–	–	–	–	–
COc1cccc(/C=C2/S/C(=N/Nc3nc(C)c(C(C)=O)s3)NC2=O)c1O	> 100	51.3	44	> 100	> 100	97	> 100	64.9	> 100	> 100	–	–	–	–	–	–	–	–
CC(N)=O.[Cl][Pt][Cl].[NH-]c1ccn(C2OC(CO)C(O)C2O)c(=O)n1 (stereo not drawn)	–	> 100	> 100	> 100	> 100	> 100	> 100	> 100	> 100	> 100	–	–	–	–	–	–	–	–
Clc1ccc(Cn2cc(/C=N/n3cnnc3)c3ccccc32)cc1	31.4	> 100	> 100	> 100	4.34	> 100	> 100	> 100	> 100	> 100	–	–	–	–	–	–	–	–
